# Laboratory results as given in US20200024223A1, “CRYSTALLINE SALTS OF (4S,4AS,5AR,12AS)-4-DIMETHYLAMINO-3,10,12,12A-TETRAHYDROXY-7-[(METHOXY(METHYL)AMINO)-METHYL]-1,11-DIOXO-1,4,4A,5,5A,6,11,12A-OCTAHYDRO-NAPHTHACENE-2-CARBOXYLIC ACID AMIDE AND METHODS OF USING THE SAME” (priority 2011, published 2020).
# Where two headings read alike, the source gives them in different places.
# Tests used:
# E. coli = test: In vitro MIC testing, antibacterial spectrum of activity; type: cell-based
# Salmonella spp. = test: as above; type: cell-based
# S. pneumoniae PBS 1339 = details: neutropenic CD-1 male mice, single IV dose 2 hours post infection, survival at 72 hours post infection
# [1] = system: Carrageenan-Induced Rat Footpad Edema; test: Rat Carrageenan-Induced Footpad Edema inflammation model; type: in vivo; details: 3 hours post carrageenan
# Procedure: Immediately following the carrageenan injection and 3 hours post-injection, the hind paw volume was measured with a digital water plethysmometer. Results were calculated as a percent change in paw volume over the 3 hours, divided by the baseline paw volume, and then adjusted for the mean percent inflammation in the untreated controls, and are presented in Table 10.
# S. aureus RN450-1 [2] = test: S. aureus Thigh Wound Infection Model; type: in vivo; details: Staphylococcus aureus, RN4501, in Mus musculus, iv, read-out: S. aureus RN450-1 Thigh ED50
# Procedure: Bacterial cultures were prepared by growing S. aureus RN450-1 overnight and diluting with sterile PBS. An injection of 100 μL of ˜1×10^6 CFU/mL in sterile PBS was injected into the thigh. Four groups of mice for each drug received doses of 0.33, 1, 3, or 9 mg/kg intravenously at 2 and 6 hours post infection. An additional group of untreated mice served as a negative control group. At 24 hours post infection, the thighs were collected aseptically, homogenized, and plated to enumerate bacterial load per thigh. Data are reported as ED50 values.
# S. aureus RN450-1 [3] = test: S. aureus Systemic Intraperitoneal Challenge (IPC) Model; type: in vivo; details: CD-1 male mice, single SC dose 1 hour post infection, survival at 48 hours post infection
# Procedure: Bacterial cultures were prepared by growing tetracycline-sensitive S. aureus RN450-1 overnight, then diluting with sterile phosphate-buffered saline (PBS). For each experiment, a total of 30 mice were infected by injection into the intraperitoneal cavity with 500 μl of 7.5×10^7 CFU in 5% sterile bacteriological mucin. […] The doses were administered subcutaneously (SC) at 1 hour post infection. An additional infected group of 5 mice was included as a negative control (untreated) group. For all studies but one, a positive control group(s) was included (e.g., doxycycline, minocycline, or ciprofloxacin). Mice were monitored for survival for up to 7 days. […] PD50 (protective dose, 50%) is the dose required to achieve 50% survival. The PD50 values reported are a mean of 2-3 independent experiments for each drug tested.
# [4] = Thermo-gravimetric analysis (TGA); type: physicochemical
# Procedure: TGA is used to determine changes in weight in relation to change in temperature, which may reveal degradation of the compound and the presence of solvates or hydrates. TGA analysis as disclosed herein was collected on a TA Instruments Q500 TGA equipped with a 16 position auto-sampler. The instrument was temperature calibrated using certified Alumel and Nickel. […] A nitrogen purge at 60 ml.min^−1 was maintained over the sample. The instrument control and data analysis software used was Advantage for Q Series v2.8.0.392 and Thermal Advantage v4.8.3 and the data was analyzed using Universal Analysis v4.4A. […] The observed apparent weight loss is due to instability of the machine. Table 5 below compares the DSC and TGA analysis of the crystalline salts of the present invention with the crystalline free base and Comparative Example 1.
# [5] = Storage stability by HPLC-UV (chemical purity, β-isomer content, total impurity content); type: physicochemical
# Procedure: The lower the β-isomer content, the higher the chemical purity of the salt. The β-isomer content is measured after synthesis of the salt and compared with the measured β-isomer content after storage for a designated period of time.
# Another measure of chemical purity is defined by the content of other related impurities, by-products or degradation products of the salt, which represents the […] of the compound. The lower the content of total impurities as measured by HPLC, generally, by HPLC-UV, the higher the chemical purity of the salt. The total impurity content is measured after synthesis of the salt and compared with the measured total impurity content after storage for a designated period of time.
# In order to determine the stability of Crystalline Mono Hydrochloride Salt, the β-isomer content of the salt was determined by HPLC-UV analysis and compared to the β-isomer content calculated after the salt was stored in an amber glass vial for approximately 75 days at ambient conditions.
# The β-isomer content of Comparative Example 2 was also determined by HPLC-UV analysis at 0 days and compared to the β-isomer content calculated after the compound was stored in a clear glass vial for approximately 75 days at ambient conditions.
# HPLC-UV and XRPD analysis were conducted on samples of Crystalline Mono Hydrochloride Salt, Crystalline Mesylate Salt and Crystalline Sulfate Salt at 0 days and after storage for 7 days at 40° C. and 75% RH. FIGS. 1, 4 and 7 show the XRPD analysis of the Crystalline Mono Hydrochloride Salt, Crystalline Mesylate Salt and Crystalline Sulfate Salt at 0 days and after storage at 40° C. and 75% RH with the graphs overlaid for comparison.
# The results of HPLC-UV analysis for the same samples of Crystalline Mesylate Salt and Crystalline Sulfate Salt are shown in Table 4.
# [6] = Differential scanning calorimetry (DSC); type: physicochemical; details: after synthesis
# Procedure: DSC analysis as disclosed herein was collected on a TA Instruments Q2000 equipped with a 50 position auto-sampler. The instrument was calibrated for energy and temperature using certified indium. The calibration for thermal capacity was carried out using sapphire. […] A nitrogen purge at 50 ml.min^−1 was maintained over the sample. The instrument control software used was Advantage for Q Series v2.8.0.392 and Thermal Advantage v4.8.3 and the data was analyzed using Universal Analysis v4.4A. […] The observed apparent weight loss is due to instability of the machine. Table 5 below compares the DSC and TGA analysis of the crystalline salts of the present invention with the crystalline free base and Comparative Example 1.
# [7] = system: Prevotella melaninogenica; test: In vitro MIC testing against anaerobic bacteria; type: cell-based
# [8] = system: Streptococcus constellatus; test: In vitro MIC testing against anaerobic bacteria; type: cell-based; details: ATCC27823
# S. pyogenes = test: In vitro MIC testing, antibacterial spectrum of activity; type: cell-based; details: Streptococcus pyogenes, S. pyogenes
# S. agalactiae = test: as above; type: cell-based; details: Streptococcus agalactiae, S. agalactiae
# E. faecium = test: as above; type: cell-based; details: Enterococcus faecium, vancomycin-susceptible E. faecium
# E. cloacae = test: as above; type: cell-based; details: Enterobacter cloacae, 7 of 30 strains inhibited
# Staphylococcus aureus = test: Inhibition of macromolecular synthesis in Staphylococcus aureus (whole-cell assay); type: cell-based; details: S. aureus, at 8-fold the MIC
# [9] = system: Streptococcus spp. [Group C]; test: In vitro MIC testing, antibacterial spectrum of activity; type: cell-based; details: Streptococcus, Group C streptococci
# S. pneumoniae = test: as above; type: cell-based, Streptococcus pneumoniae; details: Streptococcus pneumoniae, PSSP, all but 3 strains inhibited
# [10] = Escherichia coli, read-out: MIC50
# [11] = Escherichia coli, read-out: MIC90
Compound,MIC Range (E. coli),MIC (E. coli; Escherichia coli) [mg/L],MIC50 (E. coli; [10]) [mg/L],MIC90 (E. coli; [11]) [mg/L],MIC50 (Salmonella spp.) [mg/L],MIC90 (Salmonella spp.) [mg/L],S. pneumoniae PBS1339 RTI PD50 (S. pneumoniae PBS 1339) [mg/kg],Mean Percent Inflammation Compared to Untreated Controls ([1]; 75 mg/kg IP) [%],Mean Percent Inflammation Compared to Untreated Controls ([1]; 100 mg/kg IP) [%],ED50 (S. aureus RN450-1 [2]) [mg/kg],S. aureus RN450-1 IPC PD50 (S. aureus RN450-1 [3]) [mg/kg],Mean Percent Inflammation Compared to Untreated Controls ([1]; 25 mg/kg IP) [%],Mean Percent Inflammation Compared to Untreated Controls ([1]; 50 mg/kg IP) [%],other results
"C[C@H]1c2cccc(O)c2C(=O)C2=C(O)[C@]3(O)C(=O)C(C(N)=O)=C(O)[C@@H](N(C)C)[C@@H]3[C@@H](O)[C@@H]21 [Doxycycline, doxycycline]",64-64 μg/mL,64,2,32,2,32,7.18,68,36,8.31,0.30,,,
"CON(C)Cc1ccc(O)c2c1C[C@H]1C[C@H]3[C@H](N(C)C)C(O)=C(C(N)=O)C(=O)[C@@]3(O)C(O)=C1C2=O [Comparative Example 1, (4S,4aS,5aR,12aS)-4-dimethylamino-3,10,12,12a-tetrahydroxy-7-[(methoxy(methyl)amino)-methyl]-1,11-dioxo-1,4,4a,5,5a,6,11,12a-octahydro-naphthacene-2-carboxylic acid amide]",,,,,,,,,,,,,,"TGA weight loss ([4]; from about 30° C. to about 106° C.): 7% weight loss from about 30 °C to; TGA weight loss ([4]; from about 106° C. to about 200° C.): 8% weight loss from about 106 °C; TGA weight loss ([4]; from about 200° C. to about 300° C.): 23% weight loss from about 200 °C; β-isomer content at 0 days ([5]; 0 days): 3.6 % peak area; β-isomer content after storage ([5]; 48 hours at about 40° C. and about 75% RH): 31.7 % peak area; β-isomer content after storage ([5]; 36 days at about 25° C. and about 60% RH): 8.7 % peak area; total impurity content at 0 days ([5]; HPLC-UV, 0 days): 4.2 % peak area; total impurity content after storage ([5]; about 2 days at about 40° C. and about 75% RH): 34.6 % peak area; Differential Scanning Calorimetry [6]: Broad endothermic"
"CN(C)c1ccc(O)c2c1C[C@H]1C[C@H]3[C@H](N(C)C)C(O)=C(C(N)=O)C(=O)[C@@]3(O)C(O)=C1C2=O [Minocycline, minocycline]",8 to 16 µg/mL,16,1,8,,8,,54,21,,0.03,47,33,MIC [7]: 16 mg/L; MIC [8]: 16 mg/L
"CON(C)Cc1ccc(O)c2c1C[C@H]1C[C@H]3[C@H](N(C)C)C(O)=C(C(N)=O)C(=O)[C@@]3(O)C(O)=C1C2=O [The Active, (4S,4aS,5aR,12aS)-4-dimethylamino-3,10,12,12a-tetrahydroxy-7-[(methoxy(methyl)amino)-methyl]-1,11-dioxo-1,4,4a,5,5a,6,11,12a-octahydro-naphthacene-2-carboxylic acid amide]",,,,,16,,4.66,56,53,8.23,0.25,59,52,"MIC (S. pyogenes; all but 6 strains inhibited): ≤ 0.25 mg/L; MIC (S. pyogenes; elevated MICs for 5 strains): ≥ 4 mg/L; MIC (S. agalactiae; 7 strains inhibited): ≤ 0.25 mg/L; MIC (S. agalactiae; remainder of the isolates): 16 to 32 mg/L; MIC50 (E. coli): 16 mg/L; MIC90 (E. coli): > 64 mg/L; MIC50 (E. coli; Escherichia coli, E. coli (33 isolates), read-out: MIC50): 16 mg/L; MIC (E. faecium; 17 strains inhibited): ≤ 0.5 mg/L; MIC (E. faecium; remainder of the isolates): 16 to 32 mg/L; MIC (E. cloacae): ≤ 1 mg/L; Mean Percent Inflammation Compared to Untreated Controls ([1]; 1 mg/kg IP): 103%; Mean Percent Inflammation Compared to Untreated Controls ([1]; 5 mg/kg IP): 78%; Mean Percent Inflammation Compared to Untreated Controls ([1]; 10 mg/kg IP): 65%; Mean Percent Inflammation Compared to Untreated Controls ([1]; 150 mg/kg IP): 26%; inhibition for the synthesis of cell wall, DNA, RNA and lipid components (Staphylococcus aureus): less than 20%; MIC ([9]; 19 strains inhibited): ≤ 0.25 mg/L; MIC ([9]; remainder of the isolates): 4 to 16 mg/L; MIC (S. pneumoniae): ≤ 0.25 mg/L"
